Measurements as given in ChEMBL document CHEMBL3885881, “DrugMatrix”.

Species on record: Rattus norvegicus
Assay: DrugMatrix - Regimen: Daily Repeat
Assay type: toxicity, organism-based, Sprague-Dawley
Parameters: regimen Daily Repeat, gender Male, age 6-8 weeks
Settings: in vivo, po, route oral GAVAGE, vehicle 100 % WATER; for ABSOLUTE BASOPHIL / ABSOLUTE EOSINOPHIL / ABSOLUTE LYMPHOCYTE / ABSOLUTE MONOCYTE / ABSOLUTE SEGMENTED NEUTROPHIL / BASOPHIL / EOSINOPHIL / ERYTHROCYTE COUNT / HEMATOCRIT / HEMOGLOBIN / LEUKOCYTE COUNT / LYMPHOCYTE / MEAN CORPUSCULAR HEMOGLOBIN / MEAN CORPUSCULAR HEMOGLOBIN CONCENTRATION / MEAN CORPUSCULAR VOLUME / MONOCYTE / NEUTROPHIL / NUCLEATED RED BLOOD CELLS / PLATELET COUNT: tissue Blood; for ALANINE AMINOTRANSFERASE / ALBUMIN / ALKALINE PHOSPHATASE / ASPARTATE AMINOTRANSFERASE / BLOOD UREA NITROGEN / CARBON DIOXIDE / CHLORIDE / CHOLESTEROL / CREATINE PHOSPHOKINASE / CREATININE / GLUCOSE / LACTATE DEHYDROGENASE / LIPASE / PHOSPHORUS / POTASSIUM / SODIUM / TOTAL BILIRUBIN / TOTAL PROTEIN / URIC ACID: tissue Plasma
[1] = 2 mg/kg, 120 h, dose level Low, time 5 day
[2] = 2000 mg/kg, 72 h, dose level High, time 3 day
[3] = 2000 mg/kg, 120 h, dose level High, time 5 day

CC(C)(C)c1ccc(C(=O)CCCN2CCC(OC(c3ccccc3)c3ccccc3)CC2)cc1 [EBASTINE]
ABSOLUTE BASOPHIL [1]: 0 CELLS/uL
ABSOLUTE EOSINOPHIL [1]: 268.33 CELLS/uL
ABSOLUTE LYMPHOCYTE [1]: 11875.67 CELLS/uL
ABSOLUTE MONOCYTE [1]: 285.33 CELLS/uL
ABSOLUTE SEGMENTED NEUTROPHIL [1]: 1837.33 CELLS/uL
BASOPHIL [1]: 0%
EOSINOPHIL [1]: 1.67%
ERYTHROCYTE COUNT [1]: 5.47 x10E6/uL
HEMATOCRIT [1]: 34.03%
HEMOGLOBIN [1]: 13.83 G/DL
LEUKOCYTE COUNT [1]: 14.27 x10E3/uL
LYMPHOCYTE [1]: 83.33%
MEAN CORPUSCULAR HEMOGLOBIN [1]: 25.3 pg
MEAN CORPUSCULAR HEMOGLOBIN CONCENTRATION [1]: 40.67 G/DL
MEAN CORPUSCULAR VOLUME [1]: 62.27 fL
MONOCYTE [1]: 2%
NEUTROPHIL [1]: 13%
NUCLEATED RED BLOOD CELLS [1]: 0 /100WBC
PLATELET COUNT [1]: 1267.33 x10E3/uL
ALANINE AMINOTRANSFERASE [1]: 45.33 u/L
ALBUMIN [1]: 4.3 G/DL
ALKALINE PHOSPHATASE [1]: 377.33 u/L
ASPARTATE AMINOTRANSFERASE [1]: 74 u/L
BLOOD UREA NITROGEN [1]: 15.67 mg/dL
CARBON DIOXIDE [1]: 27.33 mmol/L
CHLORIDE [1]: 101 MEQ/L
CHOLESTEROL [1]: 75 mg/dL
CREATINE PHOSPHOKINASE [1]: 212.67 u/L
CREATININE [1]: 0.24 mg/dL
GLUCOSE [1]: 160.33 mg/dL
LACTATE DEHYDROGENASE [1]: 207.67 u/L
LIPASE [1]: 10 u/L
PHOSPHORUS [1]: 12.17 mg/dL
POTASSIUM [1]: 6.8 MEQ/L
SODIUM [1]: 140.47 MEQ/L
TOTAL BILIRUBIN [1]: 0.2 mg/dL
TOTAL PROTEIN [1]: 5.9 G/DL
URIC ACID [1]: 1.87 mg/dL
ABSOLUTE BASOPHIL [2]: 0 CELLS/uL
ABSOLUTE EOSINOPHIL [2]: 34.67 CELLS/uL
ABSOLUTE LYMPHOCYTE [2]: 11326.67 CELLS/uL
ABSOLUTE MONOCYTE [2]: 253 CELLS/uL
ABSOLUTE SEGMENTED NEUTROPHIL [2]: 2019 CELLS/uL
BASOPHIL [2]: 0%
EOSINOPHIL [2]: 0.33%
ERYTHROCYTE COUNT [2]: 6 x10E6/uL
HEMATOCRIT [2]: 36.1%
HEMOGLOBIN [2]: 14.77 G/DL
LEUKOCYTE COUNT [2]: 13.63 x10E3/uL
LYMPHOCYTE [2]: 83%
MEAN CORPUSCULAR HEMOGLOBIN [2]: 24.63 pg
MEAN CORPUSCULAR HEMOGLOBIN CONCENTRATION [2]: 40.9 G/DL
MEAN CORPUSCULAR VOLUME [2]: 60.27 fL
MONOCYTE [2]: 1.67%
NEUTROPHIL [2]: 15%
NUCLEATED RED BLOOD CELLS [2]: 0.33 /100WBC
PLATELET COUNT [2]: 1204 x10E3/uL
ALANINE AMINOTRANSFERASE [2]: 96.33 u/L
ALBUMIN [2]: 3.67 G/DL
ALKALINE PHOSPHATASE [2]: 316 u/L
ASPARTATE AMINOTRANSFERASE [2]: 119.67 u/L
BLOOD UREA NITROGEN [2]: 13.67 mg/dL
CARBON DIOXIDE [2]: 23.67 mmol/L
CHLORIDE [2]: 103.67 MEQ/L
CHOLESTEROL [2]: 57.33 mg/dL
CREATINE PHOSPHOKINASE [2]: 1102 u/L
CREATININE [2]: 0.21 mg/dL
GLUCOSE [2]: 195 mg/dL
LACTATE DEHYDROGENASE [2]: 227 u/L
LIPASE [2]: 8.67 u/L
PHOSPHORUS [2]: 11.03 mg/dL
POTASSIUM [2]: 4.81 MEQ/L
SODIUM [2]: 144.03 MEQ/L
TOTAL BILIRUBIN [2]: 0.1 mg/dL
TOTAL PROTEIN [2]: 5.2 G/DL
URIC ACID [2]: 1.47 mg/dL
ABSOLUTE BASOPHIL [3]: 0 CELLS/uL
ABSOLUTE EOSINOPHIL [3]: 0 CELLS/uL
ABSOLUTE LYMPHOCYTE [3]: 11532 CELLS/uL
ABSOLUTE MONOCYTE [3]: 384.67 CELLS/uL
ABSOLUTE SEGMENTED NEUTROPHIL [3]: 2350 CELLS/uL
BASOPHIL [3]: 0%
EOSINOPHIL [3]: 0%
ERYTHROCYTE COUNT [3]: 6.72 x10E6/uL
HEMATOCRIT [3]: 41.1%
HEMOGLOBIN [3]: 16.37 G/DL
LEUKOCYTE COUNT [3]: 14.27 x10E3/uL
LYMPHOCYTE [3]: 79.67%
MEAN CORPUSCULAR HEMOGLOBIN [3]: 24.4 pg
MEAN CORPUSCULAR HEMOGLOBIN CONCENTRATION [3]: 39.83 G/DL
MEAN CORPUSCULAR VOLUME [3]: 61.3 fL
MONOCYTE [3]: 3%
NEUTROPHIL [3]: 17.33%
NUCLEATED RED BLOOD CELLS [3]: 0 /100WBC
PLATELET COUNT [3]: 1272.67 x10E3/uL
ALANINE AMINOTRANSFERASE [3]: 120.67 u/L
ALBUMIN [3]: 3.9 G/DL
ALKALINE PHOSPHATASE [3]: 248 u/L
ASPARTATE AMINOTRANSFERASE [3]: 112.33 u/L
BLOOD UREA NITROGEN [3]: 16.33 mg/dL
CARBON DIOXIDE [3]: 28 mmol/L
CHLORIDE [3]: 105.67 MEQ/L
CHOLESTEROL [3]: 47 mg/dL
CREATINE PHOSPHOKINASE [3]: 523 u/L
CREATININE [3]: 0.22 mg/dL
GLUCOSE [3]: 151 mg/dL
LACTATE DEHYDROGENASE [3]: 262.67 u/L
LIPASE [3]: 8 u/L
PHOSPHORUS [3]: 10.77 mg/dL
POTASSIUM [3]: 4.79 MEQ/L
SODIUM [3]: 145.73 MEQ/L
TOTAL BILIRUBIN [3]: 0.13 mg/dL
TOTAL PROTEIN [3]: 5.13 G/DL
URIC ACID [3]: 1.23 mg/dL
